Experiment [1] concerns DDT_13 (DNA, aptamer) TCCAGCACTCCACGCATAACGAATTGTGCTCAATGCGCCCCTGCAGTGAATGTGGAATTTGTTATGCGTGCGACGGTGAA
As to the kind of experiment: AuNPs colorimetric assay. The note with it: room temperature.

Experiment [2] has the same test system. As to the kind of experiment: SYBR Green I fluorescence assay. The note with it: 137 mM NaCl, 2.5 mM KCl, 0.5 mM MgCl2, 1 mM CaCl2; phosphate binding buffer pH 7.2, room temperature; interferent prepared at 5 μM.

5 compounds from paper PMC7139375 (2020) can be followed below.

For `CC(C)(c1cc(Br)c(O)c(Br)c1)c1cc(Br)c(O)c(Br)c1`, the binding result in experiment [1] (interferent prepared at 7.4 μM) is given as “no”.

Consider `O=C(O)C(c1ccc(Cl)cc1)c1ccc(Cl)cc1`, for which the binding entry in experiment [1] (interferent prepared at 16 μM) and in experiment [2] was “no” each time.

Take `O=C(O)CNCP(=O)(O)O`: the binding result in experiment [1] (interferent prepared at 16 μM) and in experiment [2] was “no” in each case.

`O=C(O)C(F)(F)C(F)(F)C(F)(F)C(F)(F)C(F)(F)C(F)(F)C(F)(F)F`: the binding entry in experiment [1] (interferent prepared at 16 μM) is “no”.

For `CCOC(=O)C(C)=O`, the binding result in experiment [1] (interferent prepared at 16 μM) was “no”.
